The record followed here is patent US20100286145A1, “ISOPHTHALAMIDE DERIVATIVES INHIBITING BETA-SECRETASE ACTIVITY” (CoMentis, Inc., priority 2007, published 2010).

In general, IC50 refers to the midpoint of a concentration-inhibition curve.

Assay [1] concerns the target memapsin 2 (Homo sapiens, UniProt P56817). In words: Inhibition of memapsin 2 beta-secretase activity (fluorogenic substrate FS-2). The class given is biochemical. The settings on record: memapsin 2, pH 4, 37° C., 20 minutes pre-incubation; read-out: M2Ki. An outline of the steps: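 Memapsin 2 pre-incubated 20 min with compound at pH 4, 37° C, then FS-2 substrate (MCA-SEVNLDAEFK-DNP, APP Swedish cleavage site) added. Rate of fluorescence increase compared with uninhibited controls, fitted to a tight-binding inhibition model.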

Assay [2] concerns Aβ production in Chinese hamster ovary cells that over-express human APP695 with the London and Swedish mutations. The assay is described as follows: Cellular Aβ IC50 determination (Aβ40 sandwich ELISA). The settings on record: Cricetulus griseus; cellular Aβ production; read-out: IC50. Type of assay: cell-based. Put shortly:
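CHO cells overexpressing human APP695 with London and Swedish mutations, seeded at 10% confluency, treated with compounds up to about 4 μM final (0.4% DMSO). Secreted Aβ40 measured by sandwich ELISA relative to control and fitted to a 4-parameter IC50 model.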
For orientation: In an ELISA, binding on a coated surface is turned into a signal by an enzyme label.

Sequence of memapsin 2 (P56817 46-501): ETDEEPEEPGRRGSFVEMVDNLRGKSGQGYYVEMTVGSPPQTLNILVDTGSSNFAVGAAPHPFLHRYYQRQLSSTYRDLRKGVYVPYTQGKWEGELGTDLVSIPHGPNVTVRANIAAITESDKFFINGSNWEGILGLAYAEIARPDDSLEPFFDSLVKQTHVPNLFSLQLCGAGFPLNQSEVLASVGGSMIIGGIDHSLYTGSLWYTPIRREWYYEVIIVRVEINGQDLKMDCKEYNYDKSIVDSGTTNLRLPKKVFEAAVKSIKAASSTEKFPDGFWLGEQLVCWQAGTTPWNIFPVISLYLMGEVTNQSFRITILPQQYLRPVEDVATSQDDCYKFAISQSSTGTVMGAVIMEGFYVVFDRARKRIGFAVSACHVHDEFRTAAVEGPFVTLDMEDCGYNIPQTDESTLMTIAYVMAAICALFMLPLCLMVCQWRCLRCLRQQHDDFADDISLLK

In the case of `COc1cccc(CNC[C@@H](O)[C@H](Cc2ccccc2)NC(=O)c2cc(C(=O)N(C)Cc3nc(C)cs3)cc(-c3ncco3)c2)c1` [Compound 85, N1-((2S,3R)-3-hydroxy-4-(3-methoxybenzylamino)-1-phenylbutan-2-yl)-N3-methyl-N3-((4-methylthiazol-2-yl)methyl)-5-(oxazol-2-yl)isophthalamide], in assay [1], the Ki was under 300 nM. Also, in assay [2], the IC50 was under 1000 nM.
Regarding `Cc1csc(CN(C)C(=O)c2cccc(C(=O)N[C@@H](Cc3ccccc3)[C@H](O)CNCc3cncc(C(C)(C)F)c3)c2)n1` [Compound 92, N1-((2S,3R)-4-((5-(2-fluoropropan-2-yl)pyridin-3-yl)methylamino)-3-hydroxy-1-phenylbutan-2-yl)-N3-methyl-N3-((4-methylthiazol-2-yl)methyl)isophthalamide], the Ki in assay [1] is under 300 nM. The IC50 in assay [2] was under 1000 nM.
For the compound `Cc1csc(CNC(=O)c2cccc(C(=O)N[C@@H](Cc3ccccc3)[C@H](O)CNCc3cc(C(C)C)c(C)nc3C)c2)n1` [Compound 93, N1-((2S,3R)-3-hydroxy-4-((5-isopropyl-2,6-dimethylpyridin-3-yl)methylamino)-1-phenylbutan-2-yl)-N3-((4-methylthiazol-2-yl)methyl)isophthalamide], in assay [1], the Ki lay within 301 to 500 nM. Moreover, the IC50 in assay [2] is under 1000 nM.
Regarding `CNC(=O)c1cc(C(=O)N[C@@H](Cc2ccccc2)[C@H](O)CNCc2cccc(OC)c2)cc(C(=O)N[C@H](C)c2ccccc2)c1` [Compound 94, N1-((2S,3R)-3-hydroxy-4-(3-methoxybenzylamino)-1-phenylbutan-2-yl)-N3-methyl-N5-((R)-1-phenylethyl)benzene-1,3,5-tricarboxamide], in assay [1], the Ki was over 501 nM. Moreover, the IC50 in assay [2] is 1000 to 5000 nM.
In the case of `Cc1coc(CN(C)C(=O)c2cccc(C(=O)N[C@@H](Cc3ccccc3)[C@H](O)CNCc3cncc(C(C)C)c3)c2)n1` [Compound 95, N1-((2S,3R)-3-hydroxy-4-((5-isopropylpyridin-3-yl)methylamino)-1-phenylbutan-2-yl)-N3-methyl-N3-((4-methyloxazol-2-yl)methyl)isophthalamide], in assay [1], the Ki was under 300 nM. The IC50 in assay [2] is under 1000 nM.
With `COC(=O)c1cccc(CNC[C@@H](O)[C@H](Cc2ccccc2)NC(=O)c2cc(C(=O)N[C@H](C)c3ccccc3)cc(N(C)S(C)(=O)=O)c2)c1` [Compound 96, methyl 3-(((2R,3S)-2-hydroxy-3-(3-(N-methylmethylsulfonamido)-5-((R)-1-phenylethylcarbamoyl)benzamido)-4-phenylbutylamino)methyl)benzoate], the Ki in assay [1] was under 300 nM. The IC50 in assay [2] is under 1000 nM.
Regarding `Cc1csc(CN(C)C(=O)c2cccc(C(=O)N[C@@H](Cc3ccccc3)[C@H](O)CNCc3cccc(I)c3)c2)n1` [Compound 97, N1-((2S,3R)-3-hydroxy-4-(3-iodobenzylamino)-1-phenylbutan-2-yl)-N3-methyl-N3-((4-methylthiazol-2-yl)methyl)isophthalamide], the Ki in assay [1] is under 300 nM. Also, in assay [2], the IC50 is under 1000 nM.
`CNC(=O)c1cc(C(=O)N[C@@H](Cc2ccccc2)[C@H](O)CNCc2cccc(OC)c2)cc(C(=O)N(C)Cc2nc(C)cs2)c1` [Compound 98, N1-((2S,3R)-3-hydroxy-4-(3-methoxybenzylamino)-1-phenylbutan-2-yl)-N3,N5-dimethyl-N3-((4-methylthiazol-2-yl)methyl)benzene-1,3,5-tricarboxamide]: the Ki in assay [1] was under 300 nM. In addition, in assay [2], the IC50 lay within 1000 to 5000 nM.
`Cc1csc(CN(C)C(=O)c2cc(OS(C)(=O)=O)cc(C(=O)N[C@@H](Cc3ccccc3)[C@H](O)CNCc3cncc(C(C)C)c3)c2)n1` [Compound 100, 3-((2S,3R)-3-hydroxy-4-((5-isopropylpyridin-3-yl)methylamino)-1-phenylbutan-2-ylcarbamoyl)-5-(methyl((4-methylthiazol-2-yl)methyl)carbamoyl)phenyl methanesulfonate]: the Ki in assay [1] is under 300 nM. Further, the IC50 in assay [2] is under 1000 nM.
